Laboratory results as given in ChEMBL document CHEMBL1201862, “PubChem BioAssay data set” (2004).
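These data come from cells grown in 96-well plates and exposed to compound for 48 hours at five concentrations. The concentration for 50% growth inhibition is given as GI50.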 Active and inactive are the calls of the source. Rule as the data show it: active = GI50 up to about 1.1 µM and inactive = higher.

Assays:
Test in all cases: NCI anticancer screen, dose series, 48 h
786-0 = system: 786-0
A549 = system: A549
ACHN = system: ACHN
CAKI-1 = system: CAKI-1
CCRF-CEM = system: CCRF-CEM
COLO 205 = system: COLO 205
DLD-1 = system: DLD-1
DMS-114 = system: DMS-114
DMS-273 = system: DMS-273
EKVX = system: EKVX
HCC 2998 = system: HCC 2998
HCT-116 = system: HCT-116
HCT-15 = system: HCT-15
HL-60 = system: HL-60
HOP-62 = system: HOP-62
HOP-92 = system: HOP-92
HT-29 = system: HT-29
K562 = system: K562
KM-20L2 = system: KM-20L2
KM12 = system: KM12
LOX IMVI = system: LOX IMVI
LXFL 529 = system: LXFL 529
M14 = system: M14
M19-MEL = system: M19-MEL
MOLT-4 = system: MOLT-4
Malme-3M = system: Malme-3M
NCI-H226 = system: NCI-H226
NCI-H23 = system: NCI-H23
NCI-H460 = system: NCI-H460
NCI-H522 = system: NCI-H522
OVCAR-3 = system: OVCAR-3
OVCAR-4 = system: OVCAR-4
OVCAR-5 = system: OVCAR-5
OVCAR-8 = system: OVCAR-8
RPMI-8226 = system: RPMI-8226
RXF 393 = system: RXF 393
SF-268 = system: SF-268
SF-295 = system: SF-295
SF-539 = system: SF-539
SK-MEL-28 = system: SK-MEL-28
SK-MEL-2 = system: SK-MEL-2
SK-MEL-5 = system: SK-MEL-5
SK-OV-3 = system: SK-OV-3
SN12C = system: SN12C
SNB-19 = system: SNB-19
SNB-75 = system: SNB-75
SNB-78 = system: SNB-78
SR = system: SR
SW-620 = system: SW-620
TK-10 = system: TK-10
U-251 = system: U-251
UACC-257 = system: UACC-257
UACC-62 = system: UACC-62
UO-31 = system: UO-31
XF498 = system: XF498
A498 = system: A498
IGROV-1 = system: IGROV-1

## N#C/C(=C/c1ccc[nH]1)P(=O)(O)O
786-0
  GI50: > 100 µM (inactive)
A549
  GI50: > 100 µM (inactive)
ACHN
  GI50: > 100 µM (inactive)
CAKI-1
  GI50: > 100 µM (inactive)
CCRF-CEM
  GI50: > 100 µM (inactive)
COLO 205
  GI50: > 100 µM (inactive)
DLD-1
  GI50: > 100 µM (inactive)
DMS-114
  GI50: > 100 µM (inactive)
DMS-273
  GI50: > 100 µM (inactive)
EKVX
  GI50: > 100 µM (inactive)
HCC 2998
  GI50: > 100 µM (inactive)
HCT-116
  GI50: > 100 µM (inactive)
HCT-15
  GI50: > 100 µM
HL-60
  GI50: > 100 µM (inactive)
HOP-62
  GI50: > 100 µM (inactive)
HOP-92
  GI50: > 100 µM (inactive)
HT-29
  GI50: > 100 µM (inactive)
K562
  GI50: > 100 µM (inactive)
KM-20L2
  GI50: > 100 µM (inactive)
KM12
  GI50: > 100 µM (inactive)
LOX IMVI
  GI50: > 100 µM (inactive)
LXFL 529
  GI50: > 100 µM (inactive)
M14
  GI50: > 100 µM (inactive)
M19-MEL
  GI50: > 100 µM (inactive)
MOLT-4
  GI50: > 100 µM (inactive)
Malme-3M
  GI50: > 100 µM (inactive)
NCI-H226
  GI50: > 100 µM (inactive)
NCI-H23
  GI50: > 100 µM (inactive)
NCI-H460
  GI50: > 100 µM (inactive)
NCI-H522
  GI50: > 100 µM (inactive)
OVCAR-3
  GI50: > 100 µM (inactive)
OVCAR-4
  GI50: > 100 µM (inactive)
OVCAR-5
  GI50: > 100 µM (inactive)
OVCAR-8
  GI50: > 100 µM (inactive)
RPMI-8226
  GI50: > 100 µM (inactive)
RXF 393
  GI50: > 100 µM (inactive)
SF-268
  GI50: > 100 µM (inactive)
SF-295
  GI50: > 100 µM (inactive)
SF-539
  GI50: > 100 µM (inactive)
SK-MEL-28
  GI50: > 100 µM (inactive)
SK-MEL-2
  GI50: > 100 µM (inactive)
SK-MEL-5
  GI50: > 100 µM (inactive)
SK-OV-3
  GI50: > 100 µM (inactive)
SN12C
  GI50: > 100 µM (inactive)
SNB-19
  GI50: > 100 µM (inactive)
SNB-75
  GI50: 80.4 µM (inactive)
SNB-78
  GI50: > 100 µM (inactive)
SR
  GI50: > 100 µM (inactive)
SW-620
  GI50: > 100 µM (inactive)
TK-10
  GI50: > 100 µM (inactive)
U-251
  GI50: > 100 µM (inactive)
UACC-257
  GI50: > 100 µM (inactive)
UACC-62
  GI50: > 100 µM (inactive)
UO-31
  GI50: > 100 µM (inactive)
XF498
  GI50: > 100 µM (inactive)

## O=C(OCc1ccccc1)c1ccccc1-c1c2ccc(=O)cc-2oc2cc(OCc3ccccc3)ccc12
786-0
  GI50: 15.1 µM (inactive)
A498
  GI50: 25.5 µM (inactive)
A549
  GI50: 6.7 µM (inactive)
ACHN
  GI50: 6.93 µM (inactive)
CAKI-1
  GI50: 5.22 µM (inactive)
CCRF-CEM
  GI50: 3.61 µM (inactive)
COLO 205
  GI50: 18.6 µM (inactive)
DLD-1
  GI50: 5.01 µM (inactive)
DMS-273
  GI50: 7.03 µM (inactive)
EKVX
  GI50: 6.61 µM (inactive)
HCC 2998
  GI50: 19.6 µM (inactive)
HCT-116
  GI50: 9.46 µM (inactive)
HCT-15
  GI50: 9.84 µM
HL-60
  GI50: 5.48 µM (inactive)
HOP-92
  GI50: 3.56 µM (inactive)
HT-29
  GI50: 18.4 µM (inactive)
IGROV-1
  GI50: 11 µM (inactive)
K562
  GI50: 3.18 µM (inactive)
KM-20L2
  GI50: 14.6 µM (inactive)
KM12
  GI50: 12.7 µM (inactive)
LOX IMVI
  GI50: 6.43 µM (inactive)
LXFL 529
  GI50: 4.88 µM (inactive)
M14
  GI50: 15.8 µM (inactive)
M19-MEL
  GI50: 20.3 µM (inactive)
MOLT-4
  GI50: 1.95 µM (inactive)
Malme-3M
  GI50: 12.1 µM (inactive)
NCI-H226
  GI50: 11.6 µM (inactive)
NCI-H23
  GI50: 10.4 µM (inactive)
NCI-H460
  GI50: 15.7 µM (inactive)
OVCAR-3
  GI50: 17.6 µM (inactive)
OVCAR-4
  GI50: 13.5 µM (inactive)
OVCAR-5
  GI50: 19.8 µM (inactive)
OVCAR-8
  GI50: 12.1 µM (inactive)
RPMI-8226
  GI50: 5.48 µM (inactive)
RXF 393
  GI50: 14.4 µM (inactive)
SF-268
  GI50: 14.1 µM (inactive)
SF-295
  GI50: 17.2 µM (inactive)
SF-539
  GI50: 13.6 µM (inactive)
SK-MEL-28
  GI50: 21.4 µM (inactive)
SK-MEL-2
  GI50: 18.7 µM (inactive)
SK-MEL-5
  GI50: 5.86 µM (inactive)
SN12C
  GI50: 16.9 µM (inactive)
SNB-19
  GI50: 35.1 µM (inactive)
SNB-78
  GI50: 22.6 µM (inactive)
SR
  GI50: 4.49 µM (inactive)
SW-620
  GI50: 12.1 µM (inactive)
U-251
  GI50: 5.32 µM (inactive)
UACC-257
  GI50: 8.95 µM (inactive)
UACC-62
  GI50: 10.2 µM (inactive)
UO-31
  GI50: 6.12 µM (inactive)
XF498
  GI50: 15.7 µM (inactive)
